Like-named read-outs stand apart in the source and are kept apart here.
Assays:
[1] = test system: tumor cells bearing activating Ras mutations; assay: Growth of tumor cells bearing activating Ras mutations; assay type: cell-based; settings: FIG. 6
Description: (§1) In one embodiment, the MEK inhibitor of the combination therapy is either GDC-0973 or GDC-0623. […] FIG. 5. […] FIG. 6.

[2] = test system: HCT115 (KRAS^G13D); assay: Proliferation, HCT115 cells; assay type: cell-based
[3] = test system: A375 (BRAF^V600E); assay: Proliferation, A375 cells; assay type: cell-based
[4] = test system: LS180 cells; assay: TGFα-stimulated LS180 cells, immunoblot of pAKT and pERK1/2; assay type: cell-based; settings: 10 μg/mL MEHD7945A, 0.05 μM cobimetinib or combination 1 hour before 5 nM TGFα 12 minutes
Description: (§2) Inhibition of the RAS/RAF/MEK and the PI3K/AKT pathways were explored in vitro using MEHD7945A and cobimetinib or the combination of both agents in KRAS-mutant colorectal cell lines. Two KRAS mutant colorectal cell lines were selected to assess the potential upregulation of phosphorylated AKT (pAKT) by cobimetinib due to the inhibition of negative feedback loops. Upregulation of pAKT upon MEK inhibition has been described in several cell systems (Mirzoeva et al. 2009; Diep et al 2011; Turke et al. 2012). Moreover, we investigated if the addition of MEHD7945A to cobimetinib treatment could enhance pAKT and pERK1/2 inhibition. LS180 cells were pretreated with 10 μg/mL MEHD7945A, 0.05 μM cobimetinib, or the combination thereof for one hour before stimulation with 5 nM TGFα for twelve minutes. DLD-1 cells were pretreated with 10 μg/mL MEHD7945A, 0.025 μM cobimetinib, or the combination thereof for 1 hour before stimulation with 5 nM TGFα for 12 minutes. Cell lysates were immunoblotted to detect phosphorylation of EGFR (pEGFR1068), phosphorylation of AKT (pAKTS473), and phosphorylation of ERK1/2 (pERK1/2 T202/Y204), and total protein levels of EGFR, AKT, or ERK1/2. The results are shown in FIG. 9 (left panel=LS180 cells, right panel=DLD-1 cells) (EGFR=epidermal growth factor receptor; ERK=extracellular signal regulated kinase; p=phosphorylated; TGFα=transforming growth factor α) […]

[5] = test system: DLD-1 cells; assay: TGFα-stimulated DLD-1 cells, immunoblot of pAKT and pERK1/2; assay type: cell-based; settings: 10 μg/mL MEHD7945A, 0.025 μM cobimetinib or combination 1 hour before 5 nM TGFα 12 minutes
Description: as §2

[6] = test system: LS180 Colorectal Adenocarcinoma Tumor Xenografts; assay: LS180 colorectal xenograft combination study (Example 7); assay type: in vivo, mice
Procedure: (§3) A combination study of MEHD7945A and cobimetinib was conducted in the KRAS-mutant colorectal xenograft models LS180 and DLD-1. Both of these models were selected because of their KRAS-mutant status and their EGFR and HER3 expression. Cobimetinib was administered as an aqueous solution orally at […] once daily for 21 days. MEHD7945A was administered IV once a week until Day 21 was reached. Tumor sizes and body weights were recorded twice weekly over the course of the study. Mice were promptly euthanized when tumor volume exceeded 2000 mm3 or if body weight loss was 20% of their starting weight.
(§4) To appropriately analyze the repeated measurement of tumor volumes from the same animals over time, a mixed-modeling approach was used (Pinheiro et al. 2009). This approach addressed both repeated measurements and modest drop-out rates due to non-treatment-related termination of animals before study end. This analysis was used to determine tumor growth inhibition as a percentage of vehicle (% TGI) or time to tumor progression (TTP).
After randomization, LS180 tumor bearing mice were given oral (PO) gavage doses of 0 (vehicle), 3, or 10 mg/kg cobimetinib (expressed as free-base equivalents) once a day (QD) for 21 days. Mice were given 25 mg/kg of MEHD7945A via intravenous (IV) bolus injection once per week (QW) for a total of three injections. In groups that received both agents, cobimetinib was administered first and immediately followed by MEHD7945A.

[7] = test system: KRAS-Mutant DLD-1 Colorectal Adenocarcinoma Tumor Xenografts; assay: DLD-1 colorectal xenograft combination study (Example 7); assay type: in vivo, mice
Procedure: as §3, §4
(§5) After randomization, DLD-1 tumor bearing mice were given PO gavage doses of 0 (vehicle), 3, or 10 mg/kg cobimetinib (expressed as free-base equivalents) QD for 21 days. Mice received 25 mg/kg of MEHD7945A via IV bolus injection QW for a total of three injections. In groups that received both agents, cobimetinib was administered first and immediately followed by MEHD7945A.

[8] = test system: tumor cells bearing activating B-RAF mutations; assay: Growth of tumor cells bearing activating B-RAF mutations; assay type: cell-based; settings: FIG. 5
Description: as §1

[9] = test system: BxPC3 Ductal Pancreatic Xenograft Tumors; assay: Pancreatic BxPC3 xenograft combination study (Example 8); assay type: in vivo, mice
Description: as §4
as §5, with “randomization,” for “randomization, DLD-1 tumor bearing”, “(vehicle), 1,” for “(vehicle), 3,”, “or 5” for “or 10”, “Mice were given” for “Mice received”
Time to tumor progression (TTP) to twice (2×) initial tumor volume was monitored for each group following 21 days of dosing (see FIG. 13C). […] In FIG. 13 CI=confidence interval; CR=complete response (100% decrease in tumor volume); HB#8=histidine buffer; MCT=0.5% (w/v) methylcellulose, 0.2% (w/v) polysorbate 80; NA=not achieved; PR=partial response (50-99% decrease in tumor volume); TTP=time to tumor progression to twice (2×) or five times (5×) the initial tumor volume represents the group average in days.

[10] = target: T1, EGFR (Homo sapiens, UniProt P00533); assay: Betacellulin- and amphiregulin-induced EGFR phosphorylation; assay type: cell-based
[11] = target: T1, EGFR; settings: cited from earlier work
[12] = test system: pERK1/2 (Thr202/Tyr204); assay: NRG-stimulated MCF-7 cells, immunoblot of pERK1/2; assay type: cell-based; settings: 0.5 nM NRG for 10 min
Procedure: (§6) The assays were performed as follows. […] FIG. 2A.

[13] = test system: ERK1/2 and AKT pathways; settings: A431 and BxPC3 cells
[14] = test system: FaDu cells; assay: FaDu xenograft, head and neck squamous cell carcinoma model; assay type: in vivo; settings: FaDu tumors in CB17 SCID mice, 25 mg/kg intraperitoneally weekly, 2× loading dose, four treatments
Procedure: MEHD7945A, a commercially available anti-EGFR antibody, and an anti-HER3 antibody were tested in mice with established tumors derived from Fadu cells (ATCC HTB-43, Manassas, Va.) 5×10^6 FaDu cells were inoculated subcutaneously in CB17 SCID mice. Animals with similarly sized tumors were randomized into treatment cohorts (n=9/group) as follows: Vehicle (MEHD7945A formulation buffer), anti-EGFR antibody (25 mg/kg), anti-HER3 antibody (50 mg/kg), and MEHD7945A (25 mg/kg). Treatments were administered intraperitoneally, beginning with a 2× loading dose (50 or 100 mg/kg respectively) on the day of randomization and continuing weekly for a total of four treatments.

[15] = target: T2, pHER3 (Tyr1289) (Homo sapiens, UniProt P21860); assay: NRG-stimulated MCF-7 cells, immunoblot of pHER3; assay type: cell-based; settings: 0.5 nM NRG for 10 min
T2 construct: endogenous in cells; host or cells: MCF-7
Procedure: as §6

[16] = test system: pAKT (Ser473); assay: NRG-stimulated MCF-7 cells, immunoblot of pAKT; assay type: cell-based; settings: 0.5 nM NRG for 10 min
Procedure: as §6

[17] = target: T3, phosphorylated EGFR (Homo sapiens, UniProt P00533); assay: TGF-a-stimulated EGFR-NR6 cells, immunoblot of phosphorylated EGFR; assay type: cell-based; settings: 1 hr pretreatment, 5 nM TGF-a for 10 min
T3 construct: expressed in transfected cells; host or cells: EGFR-NR6
Procedure: The assays were performed as follows. […] Cell lysates were subjected to immunoblotting to detect, pERK1/2 (Thr202/Tyr204), total EGFR, and phosphorylated EGFR. Since EGFR-NR6 cells only express EGFR all potential phosphorylation sites of EGFR were detected using a pTyr antibody.

[18] = test system: pERK1/2 (Thr202/Tyr204); settings: EGFR-NR6 cells, 1 hr pretreatment, 5 nM TGF-a for 10 min
Procedure: The assays were performed as follows. MCF-7 cells treated with indicated concentrations of MEHD7945A or anti-HER3 were stimulated with 0.5 nM NRG for 10 min. Cell lysates were immunoblotted to detect pHER3 (Tyr1289), pAKT (Ser473), pERK1/2 (Thr202/Tyr204), and total HER3. FIG. 2A. […] Cell lysates were subjected to immunoblotting to detect, pERK1/2 (Thr202/Tyr204), total EGFR, and phosphorylated EGFR. Since EGFR-NR6 cells only express EGFR all potential phosphorylation sites of EGFR were detected using a pTyr antibody.

[19] = target: HER3-ECD (Homo sapiens, UniProt P21860); settings: soluble competitor 0.02-20 μg/ml
[20] = cobimetinib 3 mg/kg PO QD 21 days
[21] = cobimetinib 10 mg/kg PO QD 21 days
[22] = MEHD7945A 25 mg/kg IV QW, three injections

Molecule: O=C(NOCCO)c1ccc2cncn2c1Nc1ccc(I)cc1F [GDC-0623]
- inhibiting the growth of tumor cells bearing activating Ras mutations [1]: more activity
- EC50 [2]: 42 nM
- EC50 [3]: 7 nM

Molecule: O=C(c1ccc(F)c(F)c1Nc1ccc(I)cc1F)N1CC(O)([C@@H]2CCCCN2)C1 [GDC-0973, cobimetinib]
- phosphorylation of AKT (pAKTS473) [4]: increased phosphorylation of AKT
- phosphorylation of ERK1/2 (pERK1/2 T202/Y204) [4]: partial inhibition
- phosphorylation of AKT (pAKTS473) [5]: increased phosphorylation of AKT
- phosphorylation of ERK1/2 (pERK1/2 T202/Y204) [5]: partial inhibition
- TGI [6, 20]: 28%
- TGI [6, 21]: 63%
- TGI [7, 20]: 39%
- TGI [7, 21]: 62%
- inhibiting the growth of tumor cells bearing activating B-RAF mutations [8]: more activity
- TTP 2× (time to tumor progression to twice initial tumor volume) ([9]; cobimetinib 1 mg/kg): 22 days
- TGI ([9]; cobimetinib 1 mg/kg PO QD 21 days): 88%
- TTP 2× (time to tumor progression to twice initial tumor volume) ([9]; cobimetinib 5 mg/kg): 33 days
- TGI ([9]; cobimetinib 5 mg/kg PO QD 21 days): 109%
- EC50 [2]: 520 nM
- EC50 [3]: 5 nM

B1: MEHD7945A: dual-action antibody which comprises two identical antigen binding domains, each of which specifically binds to both HER3 and EGFR (antibody, V domains shown)
VH: EVQLVESGGGLVQPGGSLRLSCAASGFTLSGDWIHWVRQAPGKGLEWVGEISAAGGYTDYADSVKGRFTISADTSKNTAYLQMNSLRAEDTAVYYCARESRVSFEAAMDYWGQGTLVTVSS
VL: DIQMTQSPSSLSASVGDRVTITCRASQNIATDVAWYQQKPGKAPKLLIYSASFLYSGVPSRFSGSGSGTDFTLTISSLQPEDFATYYCQQSEPEPYTFGQGTKVEIKR
- betacellulin- and amphiregulin-induced EGFR phosphorylation [10]: inhibited
- Kd [11]: ~1.9 nM
- IC50, phosphorylation of ERK1/2 [12]: 1.13 µg/mL
- inhibition of ERK1/2 and AKT pathways [13]: as potently as the combination of anti-HER3 and cetuximab
- TGI [6, 22]: 44%
- inhibition of tumor growth [14]: more effective in inhibiting tumor growth than either an anti-EGFR specific or an anti-HER3 specific antibody
- IC50, phosphorylation of HER3 [15]: 0.05 µg/mL
- TGI [7, 22]: 62%
- IC50, phosphorylation of AKT [16]: 0.19 µg/mL
- TTP 2× (time to tumor progression to twice initial tumor volume) ([9]; MEHD7945A 25 mg/kg): 39.5 days
- TGI [9, 22]: 107%
- IC50, phosphorylation of EGFR [17]: 0.03 µg/mL
- IC50, phosphorylation of ERK1/2 [18]: 0.16 µg/mL
- binding to immobilized HER3-ECD with increasing amounts of EGFR-ECD [19]: reduced in a dose-dependent manner

Source: patent US20140271634A1, “COMBINATIONS OF A MEK INHIBITOR COMPOUND WITH AN HER3/EGFR INHIBITOR COMPOUND AND METHODS OF USE” (The Regents of the University of California, priority 2013, published 2014)
